This is an account of results in article PMC8911579, “(−)-Naringenin 4′,7-dimethyl Ether Isolated from Nardostachys jatamansi Relieves Pain through Inhibition of Multiple Channels” (Molecules, 2022).

The subject of assay [1] is delayed rectifier potassium currents (IK) in DRG neurons. Kind of assay: whole-cell patch-clamp, delayed rectifier potassium currents in DRG neurons. The class given is cell-based, mouse. An excerpt:
(§1) The currents in mouse DRG neurons can be separated into IA and IK. They could be distinguished by applying voltage steps from a holding potential of −50 mV, at which IA was almost completely inactivated, while IK remained unchanged. Thereby, IA could be separated by subtracting IK from the total potassium currents. According to these electrophysiological characteristics, the effects of (−)-NRG-DM on potassium currents were examined (Figure 5A). […] Additionally, the effects of (−)-NRG-DM on the kinetics of the Kv channels were further characterized. The Kv currents were elicited by multiple 1500 ms depolarization pulses ranging from −80 mV to +90 mV in 10 mV increments from a holding potential of −80 mV. […] The values of V1/2 in the absence and presence of 10 µM (−)-NRG-DM were −6.43 ± 1.21 mV and −8.08 ± 2.02 mV, respectively (Figure 5D).
Dorsal root ganglia (DRG) were dissected from male C57BL/6 mice aged 4~6 weeks. The ganglia were first cut into small pieces and then digested at 37 °C for 20 min in DMEM containing 1 mg/mL collagenase type I and 0.25 mg/mL trypsin (Sigma-Aldrich). Subsequently, the digested small fragments were terminated and resuspended with DMEM/F12 growth medium (Gibco) supplemented with 10% fetal bovine serum (FBS) (Gibco). […]
For orientation: In patch-clamp work, channel activity is measured electrically.

In a further assay the target is Nav1.7 channel (Homo sapiens, UniProt Q15858). Put plainly: whole-cell patch-clamp, Nav1.7 stably expressed in HEK293 cells.
Nav1.7 channel, sequence (Q15858 whole entry): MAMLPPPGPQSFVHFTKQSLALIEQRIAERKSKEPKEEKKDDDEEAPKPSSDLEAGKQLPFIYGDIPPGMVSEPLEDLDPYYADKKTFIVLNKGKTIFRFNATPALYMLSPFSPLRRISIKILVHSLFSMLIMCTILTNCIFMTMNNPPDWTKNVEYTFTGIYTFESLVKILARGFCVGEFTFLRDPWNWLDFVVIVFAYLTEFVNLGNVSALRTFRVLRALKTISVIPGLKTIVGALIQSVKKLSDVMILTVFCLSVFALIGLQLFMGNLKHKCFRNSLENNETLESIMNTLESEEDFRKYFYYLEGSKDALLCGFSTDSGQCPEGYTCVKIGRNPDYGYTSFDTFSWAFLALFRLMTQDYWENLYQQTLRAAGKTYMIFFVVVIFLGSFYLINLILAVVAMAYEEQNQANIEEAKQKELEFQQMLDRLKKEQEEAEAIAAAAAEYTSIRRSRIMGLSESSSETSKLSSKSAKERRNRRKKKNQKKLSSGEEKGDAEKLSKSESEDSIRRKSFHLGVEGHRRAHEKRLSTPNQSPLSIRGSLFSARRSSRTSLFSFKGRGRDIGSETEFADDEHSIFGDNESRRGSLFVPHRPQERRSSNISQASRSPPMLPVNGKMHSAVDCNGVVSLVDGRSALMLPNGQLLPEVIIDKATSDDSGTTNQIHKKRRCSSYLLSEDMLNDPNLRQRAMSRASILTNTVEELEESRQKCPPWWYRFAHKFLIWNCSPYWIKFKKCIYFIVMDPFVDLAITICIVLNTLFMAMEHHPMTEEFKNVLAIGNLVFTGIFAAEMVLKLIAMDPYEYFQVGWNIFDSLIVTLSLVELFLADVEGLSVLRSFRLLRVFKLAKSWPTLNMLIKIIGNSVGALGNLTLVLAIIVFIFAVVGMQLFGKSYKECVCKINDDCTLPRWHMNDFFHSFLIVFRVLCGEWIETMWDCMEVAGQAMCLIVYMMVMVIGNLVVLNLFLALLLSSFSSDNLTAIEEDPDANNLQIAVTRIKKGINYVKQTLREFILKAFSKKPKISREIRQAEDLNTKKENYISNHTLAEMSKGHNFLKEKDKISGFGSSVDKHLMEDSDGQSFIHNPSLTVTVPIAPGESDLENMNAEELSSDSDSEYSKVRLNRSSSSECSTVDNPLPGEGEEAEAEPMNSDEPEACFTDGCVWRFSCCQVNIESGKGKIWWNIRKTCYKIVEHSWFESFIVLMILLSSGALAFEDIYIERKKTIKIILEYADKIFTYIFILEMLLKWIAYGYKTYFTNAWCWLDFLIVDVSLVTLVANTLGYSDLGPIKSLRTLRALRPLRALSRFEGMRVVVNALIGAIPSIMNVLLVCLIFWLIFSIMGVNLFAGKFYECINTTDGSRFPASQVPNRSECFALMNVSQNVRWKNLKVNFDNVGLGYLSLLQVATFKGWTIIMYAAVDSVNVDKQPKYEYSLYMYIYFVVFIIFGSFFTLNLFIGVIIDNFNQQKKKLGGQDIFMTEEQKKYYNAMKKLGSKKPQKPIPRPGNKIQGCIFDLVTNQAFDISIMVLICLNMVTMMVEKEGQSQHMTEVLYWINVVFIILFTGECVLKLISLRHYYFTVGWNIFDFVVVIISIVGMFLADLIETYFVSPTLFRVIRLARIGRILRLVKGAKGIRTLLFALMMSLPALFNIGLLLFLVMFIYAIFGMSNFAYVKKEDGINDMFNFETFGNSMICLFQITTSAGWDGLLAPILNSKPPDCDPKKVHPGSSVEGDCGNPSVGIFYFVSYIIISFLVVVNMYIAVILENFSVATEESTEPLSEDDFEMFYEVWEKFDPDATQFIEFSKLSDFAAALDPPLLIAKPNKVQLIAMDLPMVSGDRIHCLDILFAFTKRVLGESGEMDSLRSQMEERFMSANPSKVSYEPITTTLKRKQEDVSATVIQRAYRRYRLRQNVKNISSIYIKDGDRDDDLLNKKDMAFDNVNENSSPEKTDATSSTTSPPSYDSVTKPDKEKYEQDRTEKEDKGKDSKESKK
The next assay addresses T1, TRPA1 channels (Homo sapiens, UniProt O75762).
T1 construct: expressed in transfected cells
Put plainly: whole-cell patch-clamp, TRPA1 stably expressed in HEK293 cells. Format: cell-based. Particulars: 30 µM.

The subject of assay [2] is Kv channels in DRG neurons. Put plainly: activation kinetics of Kv currents in DRG neurons. The class given is cell-based, mouse. Particulars: in presence of 10 µM; control −6.43 ± 1.21 mV.
Text: as §1

Assay [3] concerns native Nav currents in DRG neurons. Put plainly: whole-cell patch-clamp, native sodium currents in DRG neurons. Format: cell-based, mouse. The method, then: A reduction in amplitudes of action potentials manifested that (−)-NRG-DM may inhibit native sodium currents, which are mainly involved in the rising phase of an action potential. To record native sodium currents in acutely isolated DRG neurons, a 50 ms test pulse depolarized to −20 mV from a holding potential of −90 mV was applied. […] To understand how (−)-NRG-DM inhibited Nav channels, the effects of 30 µM compound (−)-NRG-DM on Nav channel kinetics were further characterized. […] In contrast to the lack of effect on the Nav channel activation, (−)-NRG-DM caused a depolarization shift of the steady-state inactivation. The V1/2 value was shifted from −65.72 ± 1.74 mV to −55.34 ± 2.14 mV by 30 µM (−)-NRG-DM (Figure 6G).
(§2) Dorsal root ganglia (DRG) were dissected from male C57BL/6 mice aged 4~6 weeks. The ganglia were first cut into small pieces and then digested at 37 °C for 20 min in DMEM containing 1 mg/mL collagenase type I and 0.25 mg/mL trypsin (Sigma-Aldrich). Subsequently, the digested small fragments were terminated and resuspended with DMEM/F12 growth medium (Gibco) supplemented with 10% fetal bovine serum (FBS) (Gibco). Finally, the dissociated DRG neurons were seeded onto 24-well plates with poly-L-lysine-coated coverslips and placed in a 37 °C, 5% CO2 incubator for at least 1 h before electrophysiological experiments.

The test system of assay [4] is TTX-resistant (TTX-R) currents in small-diameter DRG neurons. The class given is cell-based, mouse. Particulars: 300 nM TTX.
Assay [5] concerns formalin-induced inflammatory pain. Put plainly: formalin-induced mouse inflammatory pain model. Particulars: phase I and phase II. The class given is in vivo, ICR mice. The method, then:
The formalin test is a classical inflammatory pain model which represents somatic pain. Intraplantar injection of formalin results in a typical two-stage nociceptive behavior, which is characterized by licking and biting of the injected paw. The first phase (0~10 min) mainly reflects nociceptive pain, while the second phase (11~60 min) represents the inflammatory responses. In our study, we tested the effects of (−)-NRG-DM on formalin-induced inflammatory pain in mice. (−)-NRG-DM at 30 mg/kg and 50 mg/kg body weight were individually intraperitoneally administrated 30 min before injection of 1% formalin solution.
Adult male ICR mice weighing 20 ± 2 g were randomly divided into 3 groups (n = 10 for each group) and acclimatized in a transparent observation chamber for at least 30 min before the experiment. Mice were intraperitoneally administrated with vehicle or (−)-NRG-DM (30 or 50 mg/kg) 30 min prior to formalin injection. Then, 1% formalin solution (20 μL per site) was subcutaneously injected into the plantar of the left hind paw to induce acute inflammatory pain. Immediately, mice were put back into the observation chambers. Nociception caused by formalin was assessed by scoring painful behaviors and licking time over a period of 60 min. […]

In assay [6] the test system is acutely isolated mouse small-diameter DRG neurons. Kind of assay: whole-cell current-clamp, action potential firing in DRG neurons. Particulars: for action potential amplitude: 200 pA current injection, 500 ms, control 98.00 ± 6.19 mV. Format: cell-based.
Text: To investigate the underlying mechanism of (−)-NRG-DM-mediated analgesic activity, whole-cell current-clamp technology was applied to examine the effects of (−)-NRG-DM on the action potential firing in acutely isolated mouse small-diameter DRG neurons. The action potentials were evoked by a current injection of 200 pA for a 500 ms period. The threshold was defined by the first amplitude at which an action potential with a membrane potential larger than 0 mV was produced, and the amplitude was defined as the peak relative to the resting membrane potential. […] The amplitudes were reduced from 98.00 ± 6.19 mV to 95.00 ± 5.65 mV, 93.40 ± 8.27 mV, 86.80 ± 9.75 mV, and 74.40 ± 7.08 mV after perfusion of 1 μM, 3 μM, 10 μM, and 30 μM (−)-NRG-DM, respectively (Figure 4C, n = 5). Current threshold, the injection current required to elicit a single all-or-none action potential, was determined by applying 500 ms depolarizing currents of increasing magnitude. […] The inhibitory effects of (−)-NRG-DM on the firing frequency and the amplitudes of action potentials were partially reversible after washout.
as §2

Where [7] appears, read: Mus musculus, DRG neuron, n = 5.

Structures are written as SMILES.

T1 sequence (O75762 whole entry): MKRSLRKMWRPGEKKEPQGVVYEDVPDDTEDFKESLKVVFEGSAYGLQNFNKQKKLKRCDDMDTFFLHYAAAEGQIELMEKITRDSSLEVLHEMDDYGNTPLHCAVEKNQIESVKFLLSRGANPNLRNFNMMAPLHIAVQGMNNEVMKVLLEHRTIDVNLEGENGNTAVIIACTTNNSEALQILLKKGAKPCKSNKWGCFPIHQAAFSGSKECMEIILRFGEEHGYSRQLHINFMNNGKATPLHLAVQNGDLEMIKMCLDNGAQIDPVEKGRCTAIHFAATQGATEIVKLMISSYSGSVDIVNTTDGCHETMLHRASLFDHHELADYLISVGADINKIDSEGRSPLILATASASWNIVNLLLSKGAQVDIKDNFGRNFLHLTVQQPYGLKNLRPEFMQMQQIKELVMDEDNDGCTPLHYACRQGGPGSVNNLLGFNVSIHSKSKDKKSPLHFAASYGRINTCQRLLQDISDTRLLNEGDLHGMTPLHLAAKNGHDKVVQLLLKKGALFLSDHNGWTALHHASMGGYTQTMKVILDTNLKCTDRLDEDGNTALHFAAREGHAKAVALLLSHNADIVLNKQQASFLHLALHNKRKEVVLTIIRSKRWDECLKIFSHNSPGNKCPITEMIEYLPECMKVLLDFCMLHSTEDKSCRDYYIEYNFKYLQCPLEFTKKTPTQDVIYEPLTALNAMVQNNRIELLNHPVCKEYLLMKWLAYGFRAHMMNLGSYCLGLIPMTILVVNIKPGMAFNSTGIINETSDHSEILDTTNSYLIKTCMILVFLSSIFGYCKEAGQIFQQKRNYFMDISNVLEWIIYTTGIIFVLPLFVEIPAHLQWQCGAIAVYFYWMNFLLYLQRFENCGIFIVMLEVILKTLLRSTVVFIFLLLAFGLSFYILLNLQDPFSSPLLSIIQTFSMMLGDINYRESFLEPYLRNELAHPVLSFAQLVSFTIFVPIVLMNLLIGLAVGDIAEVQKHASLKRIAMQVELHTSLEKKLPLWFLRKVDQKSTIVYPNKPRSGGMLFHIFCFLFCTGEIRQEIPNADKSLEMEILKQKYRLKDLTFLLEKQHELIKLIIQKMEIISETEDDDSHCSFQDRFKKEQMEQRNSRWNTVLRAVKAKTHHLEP

Broadly, the IC50 is the concentration that inhibits the measured activity by half. Low values mean higher potency, high ones lower potency. As to `COc1ccc([C@H]2CC(=O)c3c(O)cc(OC)cc3O2)cc1` [(−)-NRG-DM, (−)-naringenin 4′,7-dimethyl ether], the figures for the IC50 in assay [1] (setting [7]) and in assay [3] (setting [7]) were 5.1 ± 0.04 µM and 34.78 ± 0.14 µM, respectively. In assay [1] (at plasma concentration (around 7 µM)), the “reduction in IK currents” value is recorded as “around 58%”. Moreover, the inhibitory ratio on Nav1.7 channel (30 µM) is given as 39 ± 5%. The compound also came in with an IDrug/IControl at Nav1.7 channel (30 μM, HEK293) of 0.61 ± 0.05. In addition, the “selectivity Nav1.7 vs Nav1.8” value on Nav1.7 channel (30 μM, no significant difference between Nav1.7 and Nav1.8) was “non-selective Nav channel inhibitor”. In addition, on TRPA1 channels, the “effect on TRPA1 currents and AITC-induced TRPA1 currents” value was “did not enhance any TRPA1 currents or inhibit AITC-induced TRPA1 currents either”. The “V1/2 of activation of Kv currents” value in assay [2] is recorded as −8.08 ± 2.02 mV. Besides, the “V1/2 of activation, total Nav currents” value in assay [3] (30 μM, control −15.34 ± 0.58 mV) is −15.23 ± 0.56 mV. Besides, the “V1/2 of steady-state inactivation, total Nav currents” value in assay [3] (30 µM, control −65.72 ± 1.74 mV) was −55.34 ± 2.14 mV. In addition, the “reduction in INa” value in assay [3] (at plasma concentration from pharmacokinetic study (around 7 µM)) was “around 28%”. The “V1/2 of activation, TTX-R currents” value in assay [4] (30 μM, control −16.82 ± 0.72 mV) was −20.14 ± 0.87 mV. Besides, the “V1/2 of steady-state inactivation, TTX-R currents” value in assay [4] (30 µM, control −39.43 ± 0.66 mV) is −49.99 ± 0.67 mV. The “painful behaviors (licking time and pain score)” value in assay [5] (30 mg/kg i.p. 30 min before 1% formalin) is “only had a significant influence in phase I”. Moreover, the “painful behaviors (licking time and overall pain score)” value in assay [5] (50 mg/kg i.p. 30 min before 1% formalin) is “significantly attenuated painful behaviors”. In addition, the “concentration at which significant reduction in number of action potentials started” value in assay [6] is 10 µM. The action potential amplitude in assay [6] (1 μM) is 95.00 ± 5.65 mV; in assay [6] (3 μM), 93.40 ± 8.27 mV; in assay [6] (10 μM) it was 86.80 ± 9.75 mV; in assay [6] (30 μM), 74.40 ± 7.08 mV. Besides, in assay [6] (1~30 μM), the “firing frequency of DRG neurons” value is “dose-dependently inhibited the firing frequency”.
